# Laboratory results: BindingDB's records for aid1799745 (Csar, 2012)
# Target: T1, UDP-3-O-acyl-N-acetylglucosamine deacetylase (Aquifex aeolicus (strain VF5), UniProt O67648)
# T1 sequence (O67648 whole entry): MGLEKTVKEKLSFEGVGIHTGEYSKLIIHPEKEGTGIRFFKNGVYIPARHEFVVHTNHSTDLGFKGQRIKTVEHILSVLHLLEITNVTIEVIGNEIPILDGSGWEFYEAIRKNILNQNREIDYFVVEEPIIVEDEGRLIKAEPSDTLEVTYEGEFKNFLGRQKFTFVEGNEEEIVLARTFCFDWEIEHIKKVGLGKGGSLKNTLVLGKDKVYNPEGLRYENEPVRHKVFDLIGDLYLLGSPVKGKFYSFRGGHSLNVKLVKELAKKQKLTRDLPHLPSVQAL
# Experiment: Thermofluor
# Details: pH 7; 25 °C
row,Kd [µM],Structure (SMILES)
1,> 100,CC1(CNC(=O)c2ccc(-c3ccccc3)cc2)NC(=O)NC1=O (stereo unspecified) [CS21]
2,93.4,CC1(CNC(=O)c2ccc(C#Cc3ccccc3)cc2)NC(=O)NC1=O (stereo unspecified) [CS22]
3,> 100,CC1(CNC(=O)c2ccc(-c3ccc(Br)cc3)cc2)NC(=O)NC1=O (stereo unspecified) [CS23]
4,63.9,CC1(CNC(=O)c2ccc(C#CC#Cc3ccccc3)cc2)NC(=O)NC1=O (stereo unspecified) [CS243]
5,0.393,NC[C@H](NC(=O)c1ccc(-c2ccccc2)cc1)C(=O)NO [CS249]
6,0.19,NC[C@H](NC(=O)c1ccc(-c2ccc(Br)cc2)cc1)C(=O)NO [CS250]
7,0.059,NC[C@H](NC(=O)c1ccc(C#CC#Cc2ccccc2)cc1)C(=O)NO [CS252]
8,> 100,C[C@@H](O)[C@H](NC(=O)c1ccc(-c2ccccc2)cc1)C(=O)NCC1(C)NC(=O)NC1=O (stereo partly specified) [CS253]
9,> 100,C[C@@H](O)[C@H](NC(=O)c1ccc(C#Cc2ccccc2)cc1)C(=O)NCC1(C)NC(=O)NC1=O (stereo partly specified) [CS254]
10,> 100,C[C@@H](O)[C@H](NC(=O)c1ccc(C#CC#Cc2ccccc2)cc1)C(=O)NCC1(C)NC(=O)NC1=O (stereo partly specified) [CS255]
11,> 100,C[C@@H](O)[C@H](NC(=O)c1ccc(-c2ccc(Br)cc2)cc1)C(=O)NCC1(C)NC(=O)NC1=O (stereo partly specified) [CS256]
12,0.008,C[C@@H](O)[C@H](NC(=O)c1ccc(C#CC#Cc2ccccc2)cc1)C(=O)NO [CS257]
13,0.033,C[C@@H](O)[C@H](NC(=O)c1ccc(-c2ccc(Br)cc2)cc1)C(=O)NO [CS258]
14,0.02,C[C@@H](O)[C@H](NC(=O)c1ccc(C#Cc2ccccc2)cc1)C(=O)NO [CS259]
15,0.075,C[C@@H](O)[C@H](NC(=O)c1ccc(-c2ccccc2)cc1)C(=O)NO [CS263]
16,> 100,CC1(CNC(=O)[C@H](CN)NC(=O)c2ccc(-c3ccccc3)cc2)NC(=O)NC1=O (stereo partly specified) [CS264]
17,> 100,CC1(CNC(=O)[C@H](CN)NC(=O)c2ccc(C#CC#Cc3ccccc3)cc2)NC(=O)NC1=O (stereo partly specified) [CS265]
18,> 100,CC1(CNC(=O)[C@H](CN)NC(=O)c2ccc(C#Cc3ccccc3)cc2)NC(=O)NC1=O (stereo partly specified) [CS266]
19,> 100,CC1(CNC(=O)[C@H](CN)NC(=O)c2ccc(-c3ccc(Br)cc3)cc2)NC(=O)NC1=O (stereo partly specified) [CS267]
20,7.25,O=C(NO)[C@H]1COC(c2ccc([N+](=O)[O-])cc2)=N1 [CS268]
21,> 100,O=C(NO)[C@H]1COC(c2ccc(OCc3cccc(F)c3)c(OC(F)(F)F)c2)=N1 [CS269]
22,3.8,O=C(NO)[C@H]1COC(c2ccc(OC(F)(F)F)c(Cl)c2)=N1 [CS270]
23,1.03,O=C(NO)[C@H]1COC(c2ccc(F)c(C(F)(F)F)c2)=N1 [CS271]
24,> 100,CN(C)c1ccc(C2=N[C@@H](C(=O)NO)CO2)cc1 [CS273]
25,15.6,CCCc1ccc(-c2ccc(C3=N[C@@H](C(=O)NO)CO3)cc2)cc1 [CS274]
26,21.5,O=C(NO)c1csc(-c2ccc(OC(F)(F)F)c(Cl)c2)n1 [CS275]
27,28.5,O=C(NO)C1=C[SiH2]C(c2ccc(F)cc2)=N1 (stereo unspecified) [CS276]
28,2.91,O=C(NO)c1csc(-c2ccc(F)c(C(F)(F)F)c2)n1 [CS277]
29,28.2,CN(C)c1ccc(-c2nc(C(=O)NO)cs2)cc1 [CS278]
30,11.1,O=C(NO)[C@H]1COC(c2ccc(F)cc2)=N1 [CS279]

row,Structure (SMILES),Kd [µM]
1,O=C(NO)[C@H]1COC(c2cc3cc(F)ccc3[nH]2)=N1 [CS272],2.5
